Experiments:
Assay type in all cases: cell-based
tumor cells = experiment: Cell proliferative assay (MTT), summary over tumor cells; settings: summary in words of Table 1; colon, liver, leukemia lines
Method: (§1) The synthesized compounds were evaluated for their cytotoxin activity against suspended tumor cells. These cells were seeded on 96-well plates and incubated for 24 h. Selected compounds were added at various doses and incubated for 72 h, MTT was then added, and the absorbance was measured at a wavelength of 590 nm. IC50 values are expressed as the mean±SEM from the dose-response curves of at least three independent experiments.

SW620 = experiment: Cell proliferative assay (MTT), SW620; settings: Homo sapiens, SW-620, 72 h incubation, read-out: IC50s SW620
Method: as §1

HepG2 = experiment: Cell proliferative assay (MTT), HepG2; settings: Homo sapiens, 72 h incubation, read-out: IC50s HepG2
Outline: (§2)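 MTT read at 590 nm after 72 h compound exposure; cells pre-incubated 24 h post-seeding. IC50 = mean±SEM from dose-response curves, n≥3 independent experiments.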

K562 = experiment: Cell proliferative assay (MTT), K562; settings: Homo sapiens, 72 h incubation, read-out: IC50s K562
Outline: as §2

HCT116 = experiment: Cell proliferative assay (MTT), HCT116; settings: Homo sapiens, HCT-116, 72 h incubation, read-out: IC50s HCT116
Method: as §1

HT29 = experiment: Cell proliferative assay (MTT), HT29; settings: Homo sapiens, HT-29, 72 h incubation, read-out: IC50s HT29
Method: as §1

A549 = experiment: Cell proliferative assay (MTT), A549; settings: Homo sapiens, 72 h incubation, read-out: IC50s A549
Outline: as §2

A375 = experiment: Cell proliferative assay (MTT), A375; settings: Homo sapiens, A-375, 72 h incubation, read-out: IC50s A375
Outline: as §2

SMMC-7221 = experiment: Cell proliferative assay (MTT), SMMC-7221; settings: 72 h incubation, read-out: IC50s SMMC-7221
Outline: as §2

LO2 = experiment: Cell proliferative assay (MTT), LO2; settings: Homo sapiens, L02, 72 h incubation, read-out: IC50s LO2
Outline: as §2

IC50 (SW620) [µM]	IC50 (HepG2) [µM]	IC50 (K562) [µM]	IC50 (HCT116) [µM]	IC50 (HT29) [µM]	IC50 (A549) [µM]	IC50 (A375) [µM]	IC50 (SMMC-7221) [µM]	SMILES	inhibitory activity against tumor cells (tumor cells)	IC50 (LO2) [µM]
6.57	7.56	> 10	> 10	> 10	–	–	–	COc1ccc(/C=C/C(=O)c2ccc(OC)c3c2OC(C)(C)C=C3)c(F)c1 [SKLBC-4, (E)-3-(2-fluoro-4-methoxyphenyl)-1-(5-methoxy-2,2-dimethyl-2H-chromen-8-yl)prop-2-en-1-one]	better inhibitory activity	–
2.14	0.21	3.67	> 10	4.48	–	–	–	COc1ccc(C(=O)/C=C/c2ccc3ccccc3c2)c2c1C=CC(C)(C)O2 [SKLBC-10, (E)-1-(5-methoxy-2,2-dimethyl-2H-chromen-8-yl)-3-(naphthalen-2-yl)prop-2-en-1-one]	better inhibitory activity	–
> 10	2.3	4.6	> 10	1.31	–	–	–	CCN(CC)c1ccc(/C=C/C(=O)c2ccc(OC)c3c2OC(C)(C)C=C3)cc1 [SKLBC-12, (E)-3-(4-(diethylamino)phenyl)-1-(5-methoxy-2,2-dimethyl-2H-chromen-8-yl)prop-2-en-1-one]	better inhibitory activity	–
> 10	4.74	> 10	8.88	> 10	–	–	–	COc1ccc(C(=O)/C=C/c2ccc(N3CCCC3)cc2)c2c1C=CC(C)(C)O2 [SKLBC-14, (E)-1-(5-methoxy-2,2-dimethyl-2H-chromen-8-yl)-3-(4-(pyrrolidin-1-yl)phenyl)prop-2-en-1-one]	better inhibitory activity	–
> 10	> 10	> 10	> 10	> 10	–	–	–	COc1ccc(C(=O)/C=C/c2ccc(O)c(Br)c2)c2c1C=CC(C)(C)O2 [SKLBC-29, (E)-3-(3-bromo-4-hydroxyphenyl)-1-(5-methoxy-2,2-dimethyl-2H-chromen-8-yl)prop-2-en-1-one]	–	–
> 10	> 10	> 10	> 10	> 10	–	–	–	COc1cc(/C=C/C(=O)c2ccc(OC)c3c2OC(C)(C)C=C3)cc(OC)c1O [SKLBC-30, (E)-3-(4-hydroxy-3,5-dimethoxyphenyl)-1-(5-methoxy-2,2-dimethyl-2H-chromen-8-yl)prop-2-en-1-one]	–	–
> 10	> 10	> 10	> 10	> 10	–	–	–	COc1ccc(C(=O)/C=C/c2ccco2)c2c1C=CC(C)(C)O2 [SKLBC-31, (E)-3-(furan-2-yl)-1-(5-methoxy-2,2-dimethyl-2H-chromen-8-yl)prop-2-en-1-one]	–	–
> 10	> 10	> 10	> 10	> 10	–	–	–	COc1ccc(C(=O)/C=C/c2cccc3ccccc23)c2c1C=CC(C)(C)O2 [SKLBC-32, (E)-1-(5-methoxy-2,2-dimethyl-2H-chromen-8-yl)-3-(naphthalen-1-yl)prop-2-en-1-one]	–	–
> 10	> 10	> 10	> 10	> 10	–	–	–	COc1ccc(C(=O)/C=C/c2ccc(Cl)cc2)c2c1C=CC(C)(C)O2 [SKLBC-34, (E)-3-(4-chlorophenyl)-1-(5-methoxy-2,2-dimethyl-2H-chromen-8-yl)prop-2-en-1-one]	–	–
> 10	> 10	> 10	> 10	> 10	–	–	–	COc1ccc(C(=O)/C=C/c2cccc(Cl)c2)c2c1C=CC(C)(C)O2 [SKLBC-35, (E)-3-(3-chlorophenyl)-1-(5-methoxy-2,2-dimethyl-2H-chromen-8-yl)prop-2-en-1-one]	–	–
> 10	> 10	> 10	> 10	> 10	–	–	–	COc1ccc(C(=O)/C=C/c2cccs2)c2c1C=CC(C)(C)O2 [SKLBC-36, (E)-1-(5-methoxy-2,2-dimethyl-2H-chromen-8-yl)-3-(thiophen-2-yl)prop-2-en-1-one]	–	–
> 10	> 10	> 10	9.44	> 10	–	–	–	COc1ccc(C(=O)/C=C/c2ccc(Cl)c(Cl)c2)c2c1C=CC(C)(C)O2 [SKLBC-37, (E)-3-(3,4-dichlorophenyl)-1-(5-methoxy-2,2-dimethyl-2H-chromen-8-yl)prop-2-en-1-one]	–	–
> 10	> 10	> 10	5.24	> 10	–	–	–	COc1ccc(C(=O)/C=C/c2cc(Cl)ccc2O)c2c1C=CC(C)(C)O2 [SKLBC-38, (E)-3-(5-chloro-2-hydroxyphenyl)-1-(5-methoxy-2,2-dimethyl-2H-chromen-8-yl)prop-2-en-1-one]	–	–
> 10	> 10	> 10	> 10	> 10	–	–	–	COc1ccc(C(=O)/C=C/c2ccccc2Cl)c2c1C=CC(C)(C)O2 [SKLBC-39, (E)-3-(2-chlorophenyl)-1-(5-methoxy-2,2-dimethyl-2H-chromen-8-yl)prop-2-en-1-one]	–	–
> 10	> 10	> 10	> 10	> 10	–	–	–	COc1ccccc1/C=C/C(=O)c1ccc(OC)c2c1OC(C)(C)C=C2 [SKLBC-40, (E)-1-(5-methoxy-2,2-dimethyl-2H-chromen-8-yl)-3-(2-methoxyphenyl)prop-2-en-1-one]	–	–
–	–	–	–	–	–	–	–	CCOc1ccc(C(=O)/C=C/c2ccc(N(CC)CC)cc2)c2c1C=CC(C)(C)O2 [SKLBC-41, (E)-3-(4-(diethylamino)phenyl)-1-(5-ethoxy-2,2-dimethyl-2H-chromen-8-yl)prop-2-en-1-one]	better inhibitory activity	–
–	9.7	4.42	–	–	9.7	8.4	> 10	CCN(CC)c1ccc(/C=C/C(=O)c2ccc(OS(=O)(=O)c3ccc(C)cc3)c3c2OC(C)(C)C=C3)cc1 [SKLBC-46, (E)-8-(3-(4-(diethylamino)phenyl)acryloyl)-2,2-dimethyl-2H-chromen-5-yl 4-methylbenzenesulfonate]	better inhibitory activity	8.2
–	0.185	0.528	–	–	8.45	0.45	0.23	CCN(CC)c1ccc(/C=C/C(=O)c2ccc(OS(C)(=O)=O)c3c2OC(C)(C)C=C3)cc1 [SKLBC-47, (E)-8-(3-(4-(diethylamino)phenyl)acryloyl)-2,2-dimethyl-2H-chromen-5-yl methanesulfonate]	better inhibitory activity	> 20
–	5.55	2.92	–	–	6.9	4.1	8.6	C=CC(=O)Oc1ccc(C(=O)/C=C/c2ccc(N(CC)CC)cc2)c2c1C=CC(C)(C)O2 [SKLBC-49, (E)-8-(3-(4-(diethylamino)phenyl)acryloyl)-2,2-dimethyl-2H-chromen-5-yl acrylate]	better inhibitory activity	8.6
–	0.703	0.59	–	–	1.61	9.2	9.7	CCN(CC)c1ccc(/C=C/C(=O)c2ccc(OC(=O)c3ccco3)c3c2OC(C)(C)C=C3)cc1 [SKLBC-50, (E)-8-(3-(4-(diethylamino)phenyl)acryloyl)-2,2-dimethyl-2H-chromen-5-yl furan-2-carboxylate]	better inhibitory activity	> 20
–	0.59	0.317	–	–	0.94	0.61	0.78	CCN(CC)c1ccc(/C=C/C(=O)c2ccc(OC(=O)C(C)C)c3c2OC(C)(C)C=C3)cc1 [SKLBC-52, (E)-8-(3-(4-(diethylamino)phenyl)acryloyl)-2,2-dimethyl-2H-chromen-5-yl isobutyrate]	better inhibitory activity	> 10
–	0.533	0.51	–	–	0.41	0.263	0.773	CCN(CC)c1ccc(/C=C/C(=O)c2ccc(OC(=O)C3CC3)c3c2OC(C)(C)C=C3)cc1 [SKLBC-54, (E)-8-(3-(4-(diethylamino)phenyl)acryloyl)-2,2-dimethyl-2H-chromen-5-yl cyclopropanecarboxylate]	better inhibitory activity	> 10
–	1.07	1.05	–	–	0.5	0.48	1.62	CCN(CC)c1ccc(/C=C/C(=O)c2ccc(OC(=O)Cc3cccc(C(F)(F)F)c3)c3c2OC(C)(C)C=C3)cc1 [SKLBC-55, (E)-8-(3-(4-(diethylamino)phenyl)acryloyl)-2,2-dimethyl-2H-chromen-5-yl 2-(3-(trifluoromethyl)phenyl)acetate]	better inhibitory activity	> 10

From patent US9394268B2, “(E)-1-(5-methoxy-2,2-dimethyl-2H-chromen-8-yl)-3-(4-methoxyphenyl)prop-2-en-1-one and analogs thereof, as well as preparation method and use thereof” (Sichuan University, priority 2012, dated 2016)
